Measured values published in ChEMBL document CHEMBL4819024, “Synthesis and evaluation of andrographolide derivatives as potent anti-osteoporosis agents in vitro and in vivo” (Eur J Med Chem, 2021).
Calls of active or inactive are those of the source. The rule behind the calls is not given here.

Assays:
BMMC [1] = assay: Anti-osteoporosis activity in C57BL/6 mouse BMM cells assessed as inhibition of M-CSF/RANKL-induced osteoclastogenesis by measuring reduction in multinucleated TRAP+ cells incubated for 5 days with media replenishment for every 48 hrs measured by TRAP-staining based analysis; assay type: functional, cell-based; settings: C57BL/6, BMMC
BMMC [2] = assay: Cytotoxicity against C57BL/6 mouse BMM cells assessed as reduction in cell viability at 30 uM measured after 48 hrs in presence of M-CSF by CCK8 assay; assay type: cell-based
BMMC [3] = assay: Anti-osteoporosis activity in C57BL/6 mouse BMM cells assessed as inhibition of M-CSF/RANKL-induced bone resorption by measuring suppression of reabsorbing pits formation after 48 hrs by hydroxyapatite assay using Leica inverted microscope; assay type: functional, cell-based; settings: dose 1-10 µM
BMMC [4] = assay: Downregulation of osteoclastogenesis-associated gene expression in C57BL/6 mouse BMM cells assessed as inhibition of M-CSF/RANKL-induced TRAcP expression at 5 uM after 5 days by qRT-PCR analysis; assay type: functional, cell-based; settings: time 5.0 day
BMMC [5] = assay: Downregulation of osteoclastogenesis-associated gene expression in C57BL/6 mouse BMM cells assessed as inhibition of M-CSF/RANKL-induced CTSK expression at 5 uM after 5 days by qRT-PCR analysis; assay type: functional, cell-based; settings: time 5.0 day
BMMC [6] = assay: Downregulation of osteoclastogenesis-associated gene expression in C57BL/6 mouse BMM cells assessed as inhibition of M-CSF/RANKL-induced NFATc1 expression at 5 uM after 5 days by qRT-PCR analysis; assay type: functional, cell-based; settings: time 5.0 day
[7] = Inhibition of RANKL-induced NFkappaB signaling pathway in mouse RAW264.7 cells assessed as reduction in NFkappaB p65 phosphorylation preincubated for 4 hrs followed by RANKL stimulation for 10 mins and measured by Western blot analysis; assay type: cell-based; settings: dose 1-10 µM, time 250.0 min
RAW264.7 [8] = assay: Effect on NFkappaB p65 expression in RANKL-stimulated mouse RAW264.7 cells at 1 to 10 uM preincubated for 4 hrs followed by RANKL stimulation for 10 mins and measured by Western blot analysis; assay type: functional; settings: dose 1-10 µM, time 250.0 min
RAW264.7 [9] = assay: Inhibition of RANKL-induced NFkappaB signaling pathway in mouse RAW264.7 cells assessed as reduction in IkappaB alpha degradation at 10 uM preincubated for 4 hrs followed by RANKL stimulation for 10 mins and measured by Western blot analysis; assay type: cell-based; settings: time 250.0 min
[10] = target: Transcription factor p65 (Mus musculus) (UniProt Q04207); assay: Inhibition of RANKL-induced NFkappaB signaling pathway in mouse RAW264.7 cells assessed as reduction in NFkappaB p65 nuclear translocation at 10 uM preincubated for 4 hrs followed by RANKL stimulation for 10 mins and measured by DAPI staining based immunofluorescence analysis; assay type: cell-based; settings: time 250.0 min
Chain of Transcription factor p65 (Mus musculus) (Q04207 whole entry): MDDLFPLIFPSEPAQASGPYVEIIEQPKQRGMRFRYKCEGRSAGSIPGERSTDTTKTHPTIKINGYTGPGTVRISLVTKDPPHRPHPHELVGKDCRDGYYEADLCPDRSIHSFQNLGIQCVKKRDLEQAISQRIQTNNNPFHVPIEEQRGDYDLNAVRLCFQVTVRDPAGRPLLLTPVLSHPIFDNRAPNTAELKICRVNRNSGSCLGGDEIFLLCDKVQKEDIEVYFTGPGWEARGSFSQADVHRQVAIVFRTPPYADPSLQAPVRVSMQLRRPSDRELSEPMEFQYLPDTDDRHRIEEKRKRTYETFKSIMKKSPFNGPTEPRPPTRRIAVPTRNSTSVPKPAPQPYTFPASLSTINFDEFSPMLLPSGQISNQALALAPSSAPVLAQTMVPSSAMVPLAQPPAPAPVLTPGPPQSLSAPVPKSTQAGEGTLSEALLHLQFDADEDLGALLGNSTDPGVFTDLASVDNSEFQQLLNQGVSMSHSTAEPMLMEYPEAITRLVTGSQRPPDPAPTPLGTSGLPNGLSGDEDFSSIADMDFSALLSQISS

C3H 10T1/2 [11] = assay: Induction of osteoblast differentiation in mouse C3H10T1 /2 cells assessed as increase in ALP expression at 1 to 10 uM measured after 7 days by ALP staining based assay; assay type: functional, cell-based; settings: dose 1-10 µM, time 7.0 day
C3H 10T1/2 [12] = assay: Induction of osteoblast differentiation in mouse C3H10T1/2 cells assessed as increase in calcium nodule formation at 1 to 10 uM measured after 14 days by alizarin red staining assay; assay type: functional, cell-based; settings: dose 1-10 µM, time 14.0 day
Mus musculus [13] = assay: Antiosteoporotic activity against OVX-induced bone loss C57BL/6 mouse model assessed as increase in trabecular thickness in femoral metaphysis at 10 mg/kg, po QD for 4 weeks; assay type: functional, organism-based; settings: dose 10.0 mg/kg/day
Mus musculus [14] = assay: Antiosteoporotic activity against OVX-induced bone loss C57BL/6 mouse model assessed as increase in trabecular number in femoral metaphysis at 10 mg/kg, po QD for 4 weeks; assay type: functional, organism-based; settings: dose 10.0 mg/kg/day
Mus musculus [15] = assay: Antiosteoporotic activity against OVX-induced bone loss C57BL/6 mouse model assessed as decrease in trabecular spacing in femoral metaphysis at 10 mg/kg, po QD for 4 weeks; assay type: functional, organism-based; settings: dose 10.0 mg/kg/day
Mus musculus [16] = assay: Antiosteoporotic activity against OVX-induced bone loss C57BL/6 mouse model assessed as decrease in PINP secretion in serum at 10 mg/kg, po QD for 4 weeks; assay type: functional, organism-based; settings: dose 10.0 mg/kg/day
Mus musculus [17] = assay: Antiosteoporotic activity against OVX-induced bone loss C57BL/6 mouse model assessed as decrease in ACP5 level in serum at 10 mg/kg, po QD for 4 weeks; assay type: functional, organism-based; settings: dose 10.0 mg/kg/day
[18] = target: MAP kinase p38 (Mus musculus) (UniProt P47811+O08911+Q9WUI1+Q9Z1B7); assay: Inhibition of RANKL-induced p38 phosphorylation in mouse RAW264.7 cells at 1 to 10 uM pretreated for 4 hrs prior to RANKL stimulation for 20 mins by western blot analysis; assay type: cell-based; settings: dose 1-10 µM, time 260.0 min
RAW264.7 [19] = assay: Inhibition of RANKL-induced ERK phosphorylation in mouse RAW264.7 cells at 1 to 10 uM pretreated for 4 hrs prior to RANKL stimulation for 20 mins by western blot analysis; assay type: cell-based; settings: dose 1-10 µM, time 260.0 min
[20] = target: c-Jun N-terminal kinase (Mus musculus) (UniProt Q91Y86+Q9WTU6+Q61831); assay: Inhibition of RANKL-induced JNK phosphorylation in mouse RAW264.7 cells at 1 to 10 uM pretreated for 4 hrs prior to RANKL stimulation for 20 mins by western blot analysis; assay type: cell-based; settings: dose 1-10 µM, time 260.0 min
Chain of c-Jun N-terminal kinase (Mus musculus) (Q61831 whole entry, looked up): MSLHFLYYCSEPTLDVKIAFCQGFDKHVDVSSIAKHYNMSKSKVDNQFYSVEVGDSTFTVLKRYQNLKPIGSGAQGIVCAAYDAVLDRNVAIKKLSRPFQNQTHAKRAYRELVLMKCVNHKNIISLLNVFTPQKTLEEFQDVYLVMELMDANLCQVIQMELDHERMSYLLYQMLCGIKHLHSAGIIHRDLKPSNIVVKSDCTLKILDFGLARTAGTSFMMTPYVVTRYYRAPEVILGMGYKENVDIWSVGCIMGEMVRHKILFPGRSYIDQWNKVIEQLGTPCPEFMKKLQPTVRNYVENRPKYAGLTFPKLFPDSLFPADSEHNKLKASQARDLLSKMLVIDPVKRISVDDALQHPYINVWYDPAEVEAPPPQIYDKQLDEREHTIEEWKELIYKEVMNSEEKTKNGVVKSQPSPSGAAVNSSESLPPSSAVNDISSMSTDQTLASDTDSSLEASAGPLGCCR
Chain of c-Jun N-terminal kinase (Mus musculus) (Q91Y86 whole entry, looked up): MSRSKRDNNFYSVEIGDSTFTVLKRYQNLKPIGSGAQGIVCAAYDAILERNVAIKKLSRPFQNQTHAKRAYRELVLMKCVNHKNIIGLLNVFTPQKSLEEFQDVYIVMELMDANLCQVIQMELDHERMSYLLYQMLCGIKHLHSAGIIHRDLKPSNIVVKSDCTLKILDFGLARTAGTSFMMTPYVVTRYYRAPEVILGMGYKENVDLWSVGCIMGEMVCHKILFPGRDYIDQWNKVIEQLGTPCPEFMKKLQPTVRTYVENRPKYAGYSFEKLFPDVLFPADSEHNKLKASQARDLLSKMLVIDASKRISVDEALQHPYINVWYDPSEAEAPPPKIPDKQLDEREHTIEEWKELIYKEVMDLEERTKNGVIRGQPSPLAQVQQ
Chain of c-Jun N-terminal kinase (Mus musculus) (Q9WTU6 whole entry, looked up): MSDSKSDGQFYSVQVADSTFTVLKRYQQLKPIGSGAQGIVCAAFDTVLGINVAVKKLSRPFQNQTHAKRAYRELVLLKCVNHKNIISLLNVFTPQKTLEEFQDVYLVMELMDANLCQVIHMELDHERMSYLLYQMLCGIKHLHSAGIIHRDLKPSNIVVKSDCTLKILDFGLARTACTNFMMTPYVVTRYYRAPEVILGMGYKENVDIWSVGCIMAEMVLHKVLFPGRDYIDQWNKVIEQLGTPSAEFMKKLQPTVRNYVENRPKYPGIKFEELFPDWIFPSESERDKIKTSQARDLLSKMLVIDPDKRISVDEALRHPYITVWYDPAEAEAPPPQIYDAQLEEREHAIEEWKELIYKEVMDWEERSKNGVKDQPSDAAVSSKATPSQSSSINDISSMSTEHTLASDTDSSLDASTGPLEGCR

[21] = Toxicity in OVX-induced bone loss C57BL/6 mouse model assessed as effect on liver morphology at 10 mg/kg, po QD for 4 weeks; assay type: organism-based; settings: in vivo, 672 h, dose 10 mg/kg/day
[22] = Toxicity in OVX-induced bone loss C57BL/6 mouse model assessed as effect on lung morphology at 10 mg/kg, po QD for 4 weeks; assay type: organism-based; settings: in vivo, 672 h, dose 10 mg/kg/day
[23] = Toxicity in OVX-induced bone loss C57BL/6 mouse model assessed as effect on kidney morphology at 10 mg/kg, po QD for 4 weeks; assay type: organism-based; settings: in vivo, 672 h
[24] = Toxicity in OVX-induced bone loss C57BL/6 mouse model assessed as effect on thymus morphology at 10 mg/kg, po QD for 4 weeks; assay type: organism-based; settings: in vivo, 672 h, dose 10 mg/kg/day
[25] = Toxicity in OVX-induced bone loss C57BL/6 mouse model assessed as effect on serum ALT level at 10 mg/kg, po QD for 4 weeks; assay type: organism-based; settings: in vivo, 672 h, dose 10 mg/kg/day
[26] = Toxicity in OVX-induced bone loss C57BL/6 mouse model assessed as effect on serum AST level at 10 mg/kg, po QD for 4 weeks; assay type: organism-based; settings: in vivo, 672 h, dose 10 mg/kg/day
[27] = Toxicity in OVX-induced bone loss C57BL/6 mouse model assessed as effect on serum ALP level at 10 mg/kg, po QD for 4 weeks; assay type: organism-based; settings: in vivo, 672 h, dose 10 mg/kg/day
[28] = Toxicity in OVX-induced bone loss C57BL/6 mouse model assessed as effect on serum GLU level at 10 mg/kg, po QD for 4 weeks; assay type: organism-based; settings: in vivo, 672 h, dose 10 mg/kg/day
[29] = Toxicity in OVX-induced bone loss C57BL/6 mouse model assessed as effect on serum creatinine level at 10 mg/kg, po QD for 4 weeks; assay type: organism-based; settings: in vivo, 672 h, dose 10 mg/kg/day
[30] = Toxicity in OVX-induced bone loss C57BL/6 mouse model assessed as effect on serum CHO level at 10 mg/kg, po QD for 4 weeks; assay type: organism-based; settings: in vivo, 672 h, dose 10 mg/kg/day
[31] = Toxicity in OVX-induced bone loss C57BL/6 mouse model assessed as effect on serum TG level at 10 mg/kg, po QD for 4 weeks; assay type: organism-based; settings: in vivo, 672 h, dose 10 mg/kg/day

With `C=C1CC[C@@H]2[C@](C)(CNCc3ccc(F)cc3)[C@H](O)CC[C@@]2(C)[C@@H]1/C=C/C1=CCOC1=O` the IC50 (BMMC [1]) was 350 nM, the Activity (BMMC [2]) was “Non-Toxic” and the Activity (BMMC [3]) was “Dose-Dependent Effect”. The inhibition (BMMC [4]) was “Active”, the inhibition (BMMC [5]) was “Active” and the inhibition (BMMC [6]) was “Active”. The inhibition [7] was “Dose-Dependent Effect”, the Activity (RAW264.7 [8]) was “inactive” and the inhibition (RAW264.7 [9]) was “Active”. The inhibition [10] was “Active”, the Activity (C3H 10T1/2 [11]) was “inactive” and the Activity (C3H 10T1/2 [12]) was “inactive”. For the same molecule, the Activity (Mus musculus [13]) was “Active”, the Activity (Mus musculus [14]) was “Active” and the Activity (Mus musculus [15]) was “Active”. The Activity (Mus musculus [16]) was “Active”, the Activity (Mus musculus [17]) was “Active” and the inhibition [18] was “inactive”. The inhibition (RAW264.7 [19]) was “inactive”, the inhibition [20] was “inactive” and the Activity [21] was “Non-Toxic”. The Activity [22] was “Non-Toxic”, the Activity [23] was “Non-Toxic” and the Activity [24] was “Non-Toxic”. The Activity [25] was “Non-Toxic”, the Activity [26] was “Non-Toxic” and the Activity [27] was “Non-Toxic”. The Activity [28] was “Non-Toxic”, the Activity [29] was “Non-Toxic” and the Activity [30] was “Non-Toxic”. For the same molecule, the Activity [31] was “Non-Toxic”.
